Patent US8722123B2, “Antimicrobial composition and use as food treatment” (priority 2008, dated 2014)
Where “and” joins values, the source holds several entries; their conditions need not be identical. Equal entries are not always repeated. Where two headings read alike, the source gives them in different places.

Columns and labels:
S. enteritidis = format: cell-based, Salmonella enteritidis
L. monocytogenes = format: cell-based, Listeria monocytogenes
S. typhimurium DT 104 = format: cell-based, Salmonella typhimurium DT104
[1] = tested on: spores of Bacillus anthracis Sterne; format: cell-based, Bacillus anthracis Sterne (34F2)
[2] = tested on: Salmonella on whole chicken with feathers; assay: Salmonella counts on whole chicken with feathers; format: cell-based; conditions: whole chickens with feathers soaked in 72 L at 21° C. for 5 min, chickens 1-5

SMILES | S. enteritidis counts at 0 min (S. enteritidis) | S. enteritidis counts at 2 min (S. enteritidis) | S. enteritidis counts at 5 min (S. enteritidis) | S. enteritidis counts at 10 min (S. enteritidis) | S. enteritidis counts at 20 min (S. enteritidis) | S. enteritidis counts at 30 min (S. enteritidis) | L. monocytogenes counts at 0 min (L. monocytogenes) | L. monocytogenes counts at 2 min (L. monocytogenes) | L. monocytogenes counts at 5 min (L. monocytogenes) | L. monocytogenes counts at 10 min (L. monocytogenes) | L. monocytogenes counts at 20 min (L. monocytogenes) | L. monocytogenes counts at 30 min (L. monocytogenes) | further results
CC(=O)CCC(=O)O [0.1% levulinic acid (pH 2.5), levulinic acid] | 7.1 log CFU/ml | 7.1 log CFU/ml | 6.9 log CFU/ml | 7.0 log CFU/ml | 6.9 log CFU/ml | 6.9 log CFU/ml | – | – | – | – | – | – | –
CC(=O)O [0.5% acetic acid (pH 3.1), acetic acid] | 7.1 log CFU/ml | 7.0 log CFU/ml | 6.8 log CFU/ml | 6.7 log CFU/ml | 6.6 log CFU/ml | 6.5 log CFU/ml | – | – | – | – | – | – | –
CC(=O)CCC(=O)O [0.5% levulinic acid (pH 2.6), levulinic acid] | 7.1 log CFU/ml | 6.8 log CFU/ml | 6.9 log CFU/ml | 6.9 log CFU/ml | 6.6 log CFU/ml | 6.7 log CFU/ml | 6.7 ± 0.2 log CFU/ml | 6.7 ± 0.1 log CFU/ml | 6.8 ± 0.3 log CFU/ml | 6.9 ± 0.2 log CFU/ml | 6.7 ± 0.2 log CFU/ml | 6.8 ± 0.2 log CFU/ml | S. typhimurium DT 104 counts at 0 min (S. typhimurium DT 104): 6.8 log CFU/ml; S. typhimurium DT 104 counts at 1 min (S. typhimurium DT 104): 6.7 log CFU/ml; S. typhimurium DT 104 counts at 2 min (S. typhimurium DT 104): 6.6 log CFU/ml; S. typhimurium DT 104 counts at 5 min (S. typhimurium DT 104): 6.5 log CFU/ml; S. typhimurium DT 104 counts at 10 min (S. typhimurium DT 104): 6.7 log CFU/ml; S. typhimurium DT 104 counts at 20 min (S. typhimurium DT 104): 6.6 log CFU/ml; S. typhimurium DT 104 counts at 30 min (S. typhimurium DT 104): 6.4 log CFU/ml; S. typhimurium DT 104 counts at 60 min (S. typhimurium DT 104): 5.9 log CFU/ml
CCCCCCCCCCCCOS(=O)(=O)[O-].[Na+] [0.05% sodium dodecyl sulfate (pH 4.4), sodium dodecyl sulfate] | 7.1 log CFU/ml | 7.0 log CFU/ml | 7.2 log CFU/ml | 7.1 log CFU/ml | 7.2 log CFU/ml | 7.1 log CFU/ml | – | – | – | – | – | – | L. monocytogenes counts at 0 min (L. monocytogenes; 21° C.): 6.6 ± 0.3 log CFU/ml; L. monocytogenes counts at 2 min (L. monocytogenes; 21° C.): 6.4 ± 0.1 log CFU/ml; L. monocytogenes counts at 5 min (L. monocytogenes; 21° C.): 6.0 ± 0.1 log CFU/ml; L. monocytogenes counts at 10 min (L. monocytogenes; 21° C.): 5.0 ± 0.3 log CFU/ml; L. monocytogenes counts at 20 min (L. monocytogenes; 21° C.): 3.8 ± 0.2 log CFU/ml; L. monocytogenes counts at 30 min (L. monocytogenes; 21° C.): 3.3 ± 0.1 log CFU/ml; S. typhimurium DT 104 counts at 0 min (S. typhimurium DT 104): 7.0 log CFU/ml; S. typhimurium DT 104 counts at 1 min (S. typhimurium DT 104): 7.0 log CFU/ml; S. typhimurium DT 104 counts at 2 min (S. typhimurium DT 104): 6.8 log CFU/ml; S. typhimurium DT 104 counts at 5 min (S. typhimurium DT 104): 6.9 log CFU/ml; S. typhimurium DT 104 counts at 10 min (S. typhimurium DT 104): 6.8 log CFU/ml; S. typhimurium DT 104 counts at 20 min (S. typhimurium DT 104): 6.9 log CFU/ml; S. typhimurium DT 104 counts at 30 min (S. typhimurium DT 104): 6.9 log CFU/ml; S. typhimurium DT 104 counts at 60 min (S. typhimurium DT 104): 6.9 log CFU/ml; Salmonella reduction (S. enteritidis): did not reduce Salmonella cell numbers
CC(=O)CCC(=O)O [1.0% levulinic acid (pH 2.9), levulinic acid] | 6.9 log CFU/ml | 6.7 log CFU/ml | 6.8 log CFU/ml | 6.9 log CFU/ml | 6.9 log CFU/ml | 6.7 log CFU/ml | 6.8 ± 0.3 log CFU/ml | 6.7 ± 0.2 log CFU/ml | 6.6 ± 0.3 log CFU/ml | 6.6 ± 0.3 log CFU/ml | 6.6 ± 0.0 log CFU/ml | 6.6 ± 0.3 log CFU/ml | –
CC(=O)CCC(=O)O [1.5% levulinic acid (pH 2.8), levulinic acid] | 6.7 log CFU/ml | 6.7 log CFU/ml | 6.8 log CFU/ml | 6.7 log CFU/ml | 6.4 log CFU/ml | 6.5 log CFU/ml | 6.9 ± 0.1 log CFU/ml | 6.9 ± 0.2 log CFU/ml | 6.9 ± 0.3 log CFU/ml | 6.9 ± 0.1 log CFU/ml | 6.9 ± 0.3 log CFU/ml | 6.8 ± 0.3 log CFU/ml | –
CC(=O)CCC(=O)O [2.0% levulinic acid (pH 2.8), levulinic acid] | 6.7 log CFU/ml | 6.7 log CFU/ml | 6.7 log CFU/ml | 6.8 log CFU/ml | 6.5 log CFU/ml | 6.0 log CFU/ml | 6.8 ± 0.3 log CFU/ml | 6.8 ± 0.2 log CFU/ml | 6.9 ± 0.2 log CFU/ml | 6.7 ± 0.2 log CFU/ml | 6.9 ± 0.2 log CFU/ml | 6.8 ± 0.2 log CFU/ml | –
CC(=O)CCC(=O)O [2.5% levulinic acid (pH 2.6), levulinic acid] | 6.9 log CFU/ml | 6.8 log CFU/ml | 6.9 log CFU/ml | 6.4 log CFU/ml | 5.8 log CFU/ml | 4.8 log CFU/ml | – | – | – | – | – | – | –
CC(=O)CCC(=O)O [3.0% levulinic acid (pH 2.7), levulinic acid] | 6.6 log CFU/ml | 6.8 log CFU/ml | 6.5 log CFU/ml | 6.2 log CFU/ml | 5.1 log CFU/ml | 3.8 log CFU/ml | – | – | – | – | – | – | CFU % recovery (as compared to control flask F), 0 min [1]: 89% and 70% and 75%; CFU % recovery (as compared to control flask F), 10 min [1]: 81%; CFU % recovery (as compared to control flask F), 45 min [1]: 55%; CFU % recovery (as compared to control flask F), 1 h [1]: 54% and 78% and 80% and 58%; CFU % recovery (as compared to control flask F), 90 min [1]: 64%; CFU % recovery (as compared to control flask F), 2 h [1]: 27% and 45% and 46% and 34%
[Ca+2].[O-]Cl.[O-]Cl [50 ppm calcium hypochlorite] | – | – | – | – | – | – | – | – | – | – | – | – | Salmonella counts after treatment ([2]; left breast): 7.0 log CFU/9 cm^2 and 8.7 log CFU/9 cm^2 and 7.9 log CFU/9 cm^2 and 8.1 log CFU/9 cm^2; Salmonella counts after treatment ([2]; left wing): 7.6 log CFU/9 cm^2 and 8.0 log CFU/9 cm^2 and 8.1 log CFU/9 cm^2 and 8.8 log CFU/9 cm^2 and 8.5 log CFU/9 cm^2; Salmonella counts after treatment ([2]; neck): 7.9 log CFU/9 cm^2 and 8.9 log CFU/9 cm^2 and 8.5 log CFU/9 cm^2 and 8.1 log CFU/9 cm^2; Salmonella counts after treatment ([2]; right breast): 7.9 log CFU/9 cm^2 and 8.3 log CFU/9 cm^2 and 8.0 log CFU/9 cm^2 and 8.5 log CFU/9 cm^2 and 7.8 log CFU/9 cm^2; Salmonella counts after treatment ([2]; right wing): 8.4 log CFU/9 cm^2 and 8.0 log CFU/9 cm^2 and 7.6 log CFU/9 cm^2
CCCCCCCCCCCCOS(=O)(=O)[O-].[Na+] [E] | – | – | – | – | – | – | – | – | – | – | – | – | CFU % recovery (as compared to control flask F), 10 min [1]: 65%; CFU % recovery (as compared to control flask F), 45 min [1]: 94%; CFU % recovery (as compared to control flask F), 90 min [1]: 144%; CFU % recovery (as compared to control flask F), 2 h [1]: 87% and 74% and 103% and 53%; CFU % recovery (as compared to control flask F), 180 min [1]: 95%; CFU % recovery (as compared to control flask F), 3 h [1]: 98% and 68% and 113% and 71%; effectiveness versus water control F [1]: not more effective than the water control F; recovery levels over time [1]: did not decrease
